One assay concerns ARPE19 cells. Put plainly: Hydrogen peroxide-induced apoptosis (phosphatidylserine / CytoCalcein Violet 450 staining). The assay is classed as cell-based, Human. The settings on record: 200 µM hydrogen peroxide, test substance 0.01, 0.1, 1 µM, 24 hours. Here is the method: Human retinal pigment epithelial cells (ARPE19) were cultured in a humidified incubator with 5% CO2 at 37°C. DMEM/F12 (Gibco) containing 10% fetal bovine serum and penicillin (100 U/ml)/streptomycin ([…]) was used as medium. The cells were cultured with the medium replaced with fresh medium every other day and were passaged using 0.25% trypsin containing 0.02% ethylenediaminetetraacetic acid (EDTA).
After apoptosis was induced in ARPE19 cells using hydrogen peroxide (H2O2), the test substance (SE101B2L) was added at varying concentrations to evaluate inhibitory effects against apoptosis. Inhibitory effects against apoptosis were measured using phosphatidylserine (PS), which is exposed on the surface of apoptotic cells.
ARPE19 cells were seeded into a 24-well microplate containing coverslips at 1 × 10^6 cells/well and cultured in an incubator with 5% CO2 at 37°C for 24 hours. When approximately 80% confluency was reached, the test substance was added to each treatment group at concentrations of 0, 0.01, 0.1, and 1 µM, together with 200 µM hydrogen peroxide, followed by incubation for 24 hours. […] Emission signals detected from each cell were measured using a digital fluorescence microscope (CELENA S digital imaging system, Logos Biosystems, Korea) to quantify apoptotic cells and live cells.

A further assay deals with VE-cadherin and ZO-1. The assay is described as follows: Expression levels and patterns of junctional proteins (immunofluorescence). The assay is classed as cell-based, human. Conditions: HUVECs; VEGF 50 ng/mL, 90 minutes; test substance 10 and 100 nM. An excerpt: Whether the test substance (SE101B2L) could regulate changes in permeability caused by VEGF-induced changes in membrane protein stability of vascular endothelial cells was confirmed. Expression levels and patterns of VE-cadherin and ZO-1, which are junctional proteins associated with vascular stability and permeability and connect cells to one another, were confirmed. One circular coverslip having a diameter of 12 mm was placed in each well of a 24-well plate, and gelatin was applied using a 2% gelatin solution to facilitate cell attachment. Into the prepared wells, 1 × 10^5 HUVECs were seeded per well. The cells were cultured in an incubator with 5% CO2 at 37°C for 4 days, with the growth medium replaced every other day. After confirming that the cells had become completely confluent, the cells were incubated for 1 hour using serum-free CEFOgro-HUVEC medium. At this time, the test substance was added to the corresponding wells to final concentrations of 10 and 100 nM. Upon completion of the incubation, VEGF at a final concentration of 50 ng/mL was added, followed by incubation for an additional 90 minutes. The incubated samples were fixed at room temperature for 15 minutes using a 10% formalin solution. […] The corresponding samples were photographed under a fluorescence microscope.

A further assay concerns HUVECs. Put plainly: VEGF-induced chemotactic cell migration (transwell chamber). Conditions: VEGF 10 ng/ml, test substance 0.1, 1, 10, 100 nM, 3 hours. The assay is classed as cell-based, human. Here is the method: The experiment was conducted by dividing the groups into an untreated group, a group treated with VEGF alone, and a group co-treated with VEGF and the test substance (SE101B2L).
In addition, whether the test substance could inhibit VEGF-induced changes in cell migration ability in HUVECs was confirmed. In terms of cell migration ability, changes in chemotactic cell migration were confirmed using a transwell chamber (24-well plate type). After coating the lower surface of a transwell insert membrane having a diameter of 6.5 mm and a pore size of 8.0 µm with 10 µg of gelatin, 5 × 10^4 cultured HUVECs were seeded into the inserts using 0.1 ml of HUVEC basal medium. The test substance was added to each test substance-treated group to final concentrations of 0.1, 1, 10, and 100 nM, and VEGF, together with HUVEC basal medium, was added to the lower wells configured in a 24-well plate format to a final concentration of 10 ng/ml, followed by incubation in an incubator with 5% CO2 at 37°C for 3 hours. Thereafter, the medium was removed from the inserts of the test groups, and the inserts were fixed using a 10% formalin solution. […] Migrated cells in each test group were photographed, and the number of cells was counted. The number of counted cells was converted to values relative to that of the untreated group, thereby calculating the results.

Consider one substance from patent EP4813999A1, “NOVEL PEPTIDE DERIVATIVE AND PHARMACEUTICAL COMPOSITION FOR PREVENTING OR TREATING MACULAR DEGENERATION COMPRISING SAME” (Supadelixir Inc., priority 2023, dated 2026).

Consider “decylbenzoyl-Cys-Phe-Lys-amide [SE101B2L]”, for which, in the assay on ARPE19 cells, the “apoptotic cells (green)” value is “apoptotic cells (green) decrease” and the “live cells (blue)” value is reported as “live cells (blue) increase in a concentration-dependent manner”. For the same substance, the “expression levels and patterns of junctional proteins between cells (VE-cadherin, ZO-1)” value in the assay on VE-cadherin and ZO-1 is “appear similarly to those of the untreated group in a concentration-dependent manner”. Further, the “cell migration ability (number of migrated cells)” value in the assay on HUVECs is listed as “reduced by the test substance in a concentration-dependent manner”.
